Measured values: patent publication US20180267019A1, “USE OF PEPTIDE HYDROGEL SCAFFOLDS FOR THREE-DIMENSIONAL THROUGHPUT DRUG DISCOVERY” (UNIVERSITY OF DELAWARE, priority 2015, published 2018)
One block for each molecule: values may come before it.

Experiments:
medulloblastoma cells [1] = experiment: DMSO tolerance of medulloblastoma cells in hydrogel-cell constructs, 384-well plate; type: cell-based, human
Procedure: Unless noted otherwise, cell viability assays were performed in 384-well plates using the RealTime-Glo™ MT Cell Viability Assay from Promega. For each experiment two stock solutions were prepared. For the first solution, 50 mM HEPES (pH 7.4) buffer was mixed with 0.5 wt % MAX8 (5 mg MAX8 per mL buffer solution for a final 0.25 wt % MAX8 hydrogel construct). The second solution was a cell solution with 11×10^6 per mL of medulloblastoma cells in serum-free DMEM. The two stock solutions were thoroughly mixed 1:1 to create a cell/gel mixture and 4 μL of the mixture was added per well to a white 384 well assay plate (Corning) containing 41 μL culture medium per well. The cells were allowed to equilibrate for 24 hours before any luminescence was determined. […] The plate was incubated for 60 minutes at 37 C and the luminescence was measured using an Envision Multilevel Reader (Perkin Elmer).
Owing to its unique shear force properties, MAX8-medulloblastoma cell constructs were dispensed at room temperature into 384-well plates (2,000 cells in 4 μL of hydrogel) (Brandtech) with 50 μL of culture medium (DMEM with serum) using a BioTek microplate dispenser. […] 10 μL of the intermediate drug media was then added to the QC plates, and following 48 h of cell culture the cell viability was measured using RealTime-Glo and the previously described method.

medulloblastoma cells [2] = experiment: Treatment of MAX8-RGDS-encapsulated medulloblastoma cells and 2D monolayers with vismodegib, cell viability; type: cell-based, human; settings: MAX8-RGDS 3D constructs vs 2D monolayers, 48 hours, FIG. 3B
Procedure: Vismodegib was added into the surrounding tissue culture medium of MAX8 hydrogel-cell constructs after 24 hours of cell seeding at the indicated concentrations. To limit the exposure of cultured cells to dimethyl sulfoxide (DMSO) from stock solutions of test compounds, 3.5 μL of stock solution was diluted in 1 mL of culture medium and then 20 μL of this solution was added to each well using the Janus workstation (PerkinElmer). Following 48 hours of cell culture the cell viability was measured as previously described using RealTime-Glo with a final concentration of 1×.

[3] = system: human medulloblastoma cells; experiment: RealTime-Glo cell viability of medulloblastoma cells encapsulated in MAX8 hydrogel-cell constructs; type: cell-based
Procedure: (§1) Human medulloblastoma cells were propagated in Dulbecco's […] Media (DMEM) supplemented with 10% fetal bovine serum and penicillin-streptomycin-glutamine at 37° C. and 5% CO2 using standard 2D cell culture protocols and tissue-culture treated plastic cell ware. For isolation of primary cerebellar granule precursor (CGP) cells, the cerebellum was dissected from P4-6 pups of C57BL/6 mice and dissociated into single cells using the Papain Dissociation System kit (Worthington Biochemical Corp, Freehold, N.J.). After filtering through a nylon mesh (70 μm pore size), the cells were briefly centrifuged and resuspended in Neurobasal medium supplemented with […] and B27.
In general and unless otherwise indicated, MAX8-cell constructs were prepared as 0.25 wt % MAX8 hydrogels. First, the peptide was dissolved in 50 mM HEPES buffer (pH 7.4) ([…] of hydrogel) and then an equal volume of single cell suspension in DMEM was added and gently mixed. Mixing the MAX8 solution with the culture medium triggers the intramolecular folding of the peptide, resulting in self-assembly into a hydrogel. For additional hydrogels with different concentrations of MAX8, the amount of peptide was adjusted but otherwise the same hydrogel assembly protocol was followed. The same procedures were followed when functionalized MAX8 was used to prepare hydrogel-cell constructs.
Unless noted otherwise, cell viability assays were performed in 384-well plates using the RealTime-Glo™ MT Cell Viability Assay from Promega. For each experiment two stock solutions were prepared. For the first solution, 50 mM HEPES (pH 7.4) buffer was mixed with 0.5 wt % MAX8 (5 mg MAX8 per mL buffer solution for a final 0.25 wt % MAX8 hydrogel construct). The second solution was a cell solution with 11×10^6 per mL of medulloblastoma cells in serum-free DMEM. The two stock solutions were thoroughly mixed 1:1 to create a cell/gel mixture and 4 μL of the mixture was added per well to a white 384 well assay plate (Corning) containing 41 μL culture medium per well. The cells were allowed to equilibrate for 24 hours before any luminescence was determined. 10× RealTime-Glo was added in 5 μL of media to each well already containing 45 μL to a final concentration of 1×. For cell viability assays in 96-well plates, the following volumes were used. 74 μL of DMEM cell media containing serum was added to each well, 16 μL of the previously mentioned 0.25 wt % MAX8 cell/gel construct was then added to each well. 10 μL of 10× RealTime-Glo was added to the wells for a final concentration of 1×. The plate was incubated for 60 minutes at 37 C and the luminescence was measured using an Envision Multilevel Reader (Perkin Elmer).

[4] = system: primary cerebellar granule precursors (CGPs); experiment: RealTime-Glo cell viability of primary cerebellar granule precursor cells encapsulated in MAX8; type: cell-based, C57BL/6 mice; settings: 0.5 wt % MAX8, RealTime-Glo, FIG. 2B
Procedure: as §1
In general and unless otherwise indicated, MAX8-cell constructs were prepared as 0.25 wt % MAX8 hydrogels. First, the peptide was dissolved in 50 mM HEPES buffer (pH 7.4) ([…] of hydrogel) and then an equal volume of single cell suspension in DMEM was added and gently mixed. […]
Unless noted otherwise, cell viability assays were performed in 384-well plates using the RealTime-Glo™ MT Cell Viability Assay from Promega. […] The cells were allowed to equilibrate for 24 hours before any luminescence was determined. […] The plate was incubated for 60 minutes at 37 C and the luminescence was measured using an Envision Multilevel Reader (Perkin Elmer).

[5] = Hydrogel material properties (oscillatory rheology, gelation); type: physicochemical
Procedure: Rheology measurements were performed on an AR G2 rheometer (TA instruments) with a 20 mm stainless steel parallel plate geometry. […] Dynamic time sweep experiments (DTS) were performed to monitor the storage (G′) and loss (G″) modulus as a function of time (6 rad/s frequency, 0.2% strain) for 60 min. For shear-thinning experiments, the samples were subjected to 500 s^−1 steady-state shear for 60 s after which oscillatory measurement was performed at 6 rad/s frequency, 0.2% strain. Subsequently, recovery of the storage (G′) and loss (G″) modulus as a function of time was monitored for 30 min. Dynamic frequency (0.1-100 rad/s frequency, 1.0% strain) sweep experiments were performed to establish the frequency response of the samples. All measurements were performed in triplicates.

[6] = 0.5 wt % hydrogel, RealTime-Glo, FIG. 2C

Molecule: C[S+](C)[O-] [DMSO, dimethyl sulfoxide]
- DMSO concentration at which medulloblastoma cells were viable (medulloblastoma cells [1]): up to 1%

Molecule: CS(=O)(=O)c1ccc(C(=O)Nc2ccc(Cl)c(-c3ccccn3)c2)c(Cl)c1 [vismodegib]
- sensitivity (dose response of cell viability), monolayers vs hydrogel cultures (medulloblastoma cells [2]): shift in dose response curves between monolayers and hydrogel cultures

Molecule: IKVAVVKVKVKVK-(V^DPPT)-KVEVKVKV-NH2 [MAX8-IKVAV]
- proliferation of medulloblastoma cells when compared to MAX8 [3, 6]: increased the proliferation

Molecule: RGDSVKVKVKVK-(V^DPPT)-KVEVKVKV-NH2 [MAX8-RGDS]
- proliferation of medulloblastoma cells encapsulated in cell constructs, over native MAX8 [3, 6]: 1.4 fold

- stiffness of the hydrogel ([5]; controllable by weight percent of the peptide): around 1000 Pa
- gelation time ([5]; room temperature, physiological salt concentration and pH): gelates within a minute
Molecule: VKVKVKVK-(V^DPPT)-KVEVKVKV-NH2 [MAX8]
- viability of medulloblastoma cells within MAX8-cell constructs ([3]; 0.25 or 0.5 wt % MAX8, RealTime-Glo, FIG. 2A): viable for several days
- cell proliferation as a function of MAX8 concentration ([3]; 0.25 vs 0.5 wt % MAX8, FIG. 2A): cell proliferation decreased with increasing MAX8 concentrations
- viability of primary CGPs within MAX8-cell constructs [4]: viable for several days

Molecule: YIGSRVKVKVKVK-(V^DPPT)-KVEVKVKV-NH2 [MAX8-YIGSR]
- proliferation of medulloblastoma cells when compared to MAX8 [3, 6]: increased the proliferation
